Where two headings read alike, the source gives them in different places.
Assays:
[1] = mode of iron excretion; cited from earlier work
[2] = cited from earlier work
[3] = rats, 300 μmol/kg intraperitoneally immediately after uranyl acetate; cited from earlier work
[4] = pH 7.4
Description: Measurements were taken via LC/MS.
To each 5 μL aliquot of stock solution of each sample was added 500 μL of PBS pH 7.4 and 500 μL of octanol and a stir bar. […] Stir bars were removed and samples centrifuged at 15,000 g for 15 minutes to separate the phases, and pipette and syringe were used to remove the upper (octanol) and lower (buffer) phases to empty tubes, respectively. Aliquots of 5 μL were taken from upper phases and diluted with 495 μL of methanol. Aliquots of 50 μL were taken from lower phases and diluted with 450 μL of methanol. Reference solutions of progesterone or metopolol were also prepared and tested as standards.

[5] = ratio of ICE in one species (monkey) to the other (rat)

COCCOCCOc1ccc(C2=N[C@@](C)(C(=O)O)CS2)c(O)c1 [Example A, (S)-2-(2-hydroxy-4-(2-(2-methoxyethoxy)ethoxy)phenyl)-4-methyl-4,5-dihydrothiazole-4-carboxylic acid]
Rodent ICE [urine/bile] [1]: [97/3]
ICE Ratio ([2]; primate (capsule) to rodent): 1.0
ICE Ratio ([2]; primate (sodium salt) to rodent): 1.1
Primate ICE [urine/bile] ([2]; given as capsule): [93/7]
Primate ICE [urine/bile] ([2]; given as sodium salt): [83/17]

COCCOCCOCCOc1ccc(C2=N[C@@](C)(C(=O)O)CS2)c(O)c1 [Example B, (S)-2-(2-hydroxy-4-(2-(2-(2-methoxyethoxy)ethoxy)ethoxy)phenyl)-4-methyl-4,5-dihydrothiazole-4-carboxylic acid]
Rodent ICE [urine/bile] [1]: [90/10]
Primate ICE [urine/bile] ([2]; mode of iron excretion): [96/4]
ICE Ratio [2, 5]: 4.6
Uranium Excretion [urine/bile] [3]: [35/65]

COCCOCCOCCOCCOc1ccc(C2=N[C@@](C)(C(=O)O)CS2)c(O)c1 [Example C, (S)-2-(4-(2,5,8,11-tetraoxatridecan-13-yloxy)-2-hydroxyphenyl)-4-methyl-4,5-dihydrothiazole-4-carboxylic acid]
Rodent ICE [urine/bile] [1]: [99/1]
Primate ICE [urine/bile] ([2]; mode of iron excretion): [52/48]
ICE Ratio [2, 5]: 0.8

COCCOCCOc1cccc(C2=N[C@@](C)(C(=O)O)CS2)c1O [Example D, (S)-2-(2-hydroxy-3-(2-(2-methoxyethoxy)ethoxy)phenyl)-4-methyl-4,5-dihydrothiazole-4-carboxylic acid]
Rodent ICE [urine/bile] [1]: [99/1]

COCCOCCOCCOc1cccc(C2=N[C@@](C)(C(=O)O)CS2)c1O [Example E, (S)-2-(2-hydroxy-3-(2-(2-(2-methoxyethoxy)ethoxy)ethoxy)phenyl)-4-methyl-4,5-dihydrothiazole-4-carboxylic acid]
Rodent ICE [urine/bile] [1]: [95/5]
Primate ICE [urine/bile] ([2]; mode of iron excretion): [95/5]
ICE Ratio [2, 5]: 2.2

COCCOCCOCCOCCOc1cccc(C2=N[C@@](C)(C(=O)O)CS2)c1O [Example F, (S)-2-(3-(2,5,8,11-tetraoxatridecan-13-yloxy)-2-hydroxyphenyl)-4-methyl-4,5-dihydrothiazole-4-carboxylic acid]
Rodent ICE [urine/bile] [1]: [98/2]
Primate ICE [urine/bile] ([2]; mode of iron excretion): [25/75]
ICE Ratio [2, 5]: 0.8

COCCc1ccc(OCC(O)CNC(C)C)cc1 (centres unmarked) [metopolol]
LogD [4]: −0.27

Source: US9045440B2, “Desazadesferrothiocin and desazadesferrothiocin polyether analogues as metal chelation agents” (FerroKin Biosciences, Inc., priority 2010, dated 2015)
